ChEMBL document CHEMBL2057163, “Pyridofuran substituted pyrimidine derivatives as HCV replication (replicase) inhibitors” (Bioorg Med Chem Lett, 2012)

How the values were obtained:
Hepatitis C virus = experiment: Antiviral activity against Hepatitis C virus 1b con1 infected in human hepatoma cells assessed as decrease in replicon RNA level after 3 days by RT-PCR analysis; format: functional, organism-based, Hepacivirus hominis; settings: Con1, 72 h
[1] = Cytotoxicity against human hepatoma cells assessed as decrease in GAPDH RNA level after 3 days by RT-PCR analysis; format: cell-based
[2] = Cytotoxicity against human hepatoma cells after 3 days by MTS assay; format: cell-based
Liver = experiment: Drug uptake in rat liver assessed per gram of tissue at 10 mg/kg, po measured at 6 hrs; format: ADME, organism-based; parameters: dose 10 mg/kg, route oral; settings: in vivo
[3] = AUC (0 to 6 hrs) in rat at 10 mg/kg, po; format: ADME, organism-based; parameters: time < 6 hr, dose 10 mg/kg, route oral; settings: plasma

Row | Compound | EC50 (Hepatitis C virus) [nM] | CC50 at 72 h [1] [µM] | CC50 at 72 h [2] [µM] | liver concentration (Liver) [ng/g] | AUC(0-t) at 6 h [3] [µM·h]
1 | Nc1nc(Cl)c(-c2cc3ccncc3o2)c(N[C@@H]2C[C@H](CO)[C@@H](O)[C@H]2O)n1 | 70 | 25 | 25 | – | –
2 | CCOCCNc1nc(C)c(-c2cc3cc(CC)ncc3o2)c(N[C@@H]2C[C@H](CO)[C@@H](O)[C@H]2O)n1.Cl | – | – | – | 492 | 1.2
3 | CCCCCNc1nc(C)c(-c2cc3cc(CC)ncc3o2)c(N[C@@H]2C[C@H](CO)[C@@H](O)[C@H]2O)n1 | 30 | 3 | 3 | – | –
4 | Nc1nc(Cl)c(-c2cc3cnccc3o2)c(N[C@@H]2C[C@H](CO)[C@@H](O)[C@H]2O)n1 | 1700 | – | 25 | – | –
5 | CCc1cc2cc(-c3c(C)nc(NCC(C)(C)C)nc3N[C@@H]3C[C@H](CO)[C@@H](O)[C@H]3O)oc2cn1 | 30 | 10 | 11 | – | –
6 | CCc1cc2cc(-c3c(C)nc(NCCCC(F)(F)F)nc3N[C@@H]3C[C@H](CO)[C@@H](O)[C@H]3O)oc2cn1 | 20 | 17 | > 25 | – | –
7 | CCc1cc2cc(-c3c(C)nc(NCC(C)C)nc3N[C@@H]3C[C@H](CO)[C@@H](O)[C@H]3O)oc2cn1.Cl | – | – | – | 251 | 4.5
8 | CCOc1cc2cc(-c3c(C)nc(NCC(C)(C)C)nc3N[C@@H]3C[C@H](CO)[C@@H](O)[C@H]3O)oc2c(C)n1 | 50 | 12 | 23 | – | –
9 | CCOc1cc2cc(-c3c(C)nc(Nc4ccccc4)nc3N[C@@H]3C[C@H](CO)[C@@H](O)[C@H]3O)oc2c(C)n1 | 150 | 24 | 18 | – | –
10 | CCOCCNc1nc(C)c(-c2cc3cc(CC)ncc3o2)c(N[C@@H]2C[C@H](CO)[C@@H](O)[C@H]2O)n1 | 4 | 4 | 16 | – | –
11 | Cc1cc2cc(-c3c(Cl)nc(N)nc3N[C@@H]3C[C@H](CO)[C@@H](O)[C@H]3O)oc2cn1 | 30 | 9 | 25 | – | –
12 | Cc1nccc2cc(-c3c(Cl)nc(N)nc3N[C@@H]3C[C@H](CO)[C@@H](O)[C@H]3O)oc12 | 120 | > 25 | > 25 | – | –
13 | CNc1nc(C)c(-c2cc3cc(OC)nc(C)c3o2)c(N[C@@H]2C[C@H](CO)[C@@H](O)[C@H]2O)n1 | 60 | > 25 | 25 | – | –
14 | CCc1cc2cc(-c3c(C)nc(NCCCC(F)(F)F)nc3N[C@@H]3C[C@H](CO)[C@@H](O)[C@H]3O)oc2cn1.Cl | – | – | – | 1000 | 0.9
15 | Cc1cc2cc(-c3c(Cl)nc(N)nc3N[C@@H]3C[C@H](CO)[C@@H](O)[C@H]3O)oc2c(C)n1.Cl | 10 | 15 | 22 | – | 0.01
16 | CCc1cc2cc(-c3c(Cl)nc(N)nc3N[C@@H]3C[C@H](CO)[C@@H](O)[C@H]3O)oc2cn1 | 10 | 12 | 22 | – | –
17 | COc1cc2cc(-c3c(C)nc(NCC(C)(C)C)nc3N[C@@H]3C[C@H](CO)[C@@H](O)[C@H]3O)oc2c(C)n1 | 40 | 17 | 21 | – | –
18 | COc1cc2cc(-c3c(C)nc(NCC(C)(C)C)nc3N[C@@H]3C[C@H](CO)[C@@H](O)[C@H]3O)oc2c(C)n1.Cl | – | – | – | 1180 | 4.4
19 | CCc1nccc2cc(-c3c(Cl)nc(N)nc3N[C@@H]3C[C@H](CO)[C@@H](O)[C@H]3O)oc12 | 20 | 19 | 24 | – | –
20 | CCc1cc2cc(-c3c(C)nc(NCC(C)(C)C)nc3N[C@@H]3C[C@H](CO)[C@@H](O)[C@H]3O)oc2cn1.Cl | – | – | – | 315 | 4
21 | CCc1cc2cc(-c3c(C)nc(NCC(F)(F)F)nc3N[C@@H]3C[C@H](CO)[C@@H](O)[C@H]3O)oc2cn1 | 20 | 13 | 15 | – | –
22 | CCc1cc2cc(-c3c(Cl)nc(N)nc3N[C@@H]3C[C@H](CO)[C@@H](O)[C@H]3O)oc2cn1.Cl | – | – | – | – | 0.07
23 | CCc1nc(C)cc2cc(-c3c(Cl)nc(N)nc3N[C@@H]3C[C@H](CO)[C@@H](O)[C@H]3O)oc12 | 30 | 9 | 20 | – | –
24 | CCOc1cc2cc(-c3c(C)nc(NCCOC)nc3N[C@@H]3C[C@H](CO)[C@@H](O)[C@H]3O)oc2c(C)n1 | 9 | > 25 | > 25 | – | –
25 | CCCCCNc1nc(C)c(-c2cc3cc(CC)ncc3o2)c(N[C@@H]2C[C@H](CO)[C@@H](O)[C@H]2O)n1.Cl | – | – | – | 31 | 0.48
26 | CCOc1cc2cc(-c3c(C)nc(NC)nc3N[C@@H]3C[C@H](CO)[C@@H](O)[C@H]3O)oc2c(C)n1.Cl | – | – | – | 238 | 1.4
27 | CCOc1cc2cc(-c3c(C)nc(NCc4cc(OC)cc(OC)c4)nc3N[C@@H]3C[C@H](CO)[C@@H](O)[C@H]3O)oc2c(C)n1.Cl | – | – | – | 238 | 0.35
